Columns and labels:
[1] = tested on: HCT-116; experiment: Growth inhibition of human HCT116 cells after 48 hrs by SRB assay; assay type: functional; conditions: HCT-116, 48 h
[2] = tested on: ACHN; experiment: Growth inhibition of human ACHN cells after 48 hrs by SRB assay; assay type: functional
[3] = tested on: NCI-H522; experiment: Growth inhibition of human NCI-H522 cells after 48 hrs by SRB assay; assay type: functional; conditions: NCI-H522, 48 h
[4] = tested on: NCI-H226; experiment: Growth inhibition of human NCI-H226 cells after 48 hrs by SRB assay; assay type: functional; conditions: NCI-H226, 48 h
[5] = tested on: MKN-74; experiment: Growth inhibition of human MKN74 cells after 48 hrs by SRB assay; assay type: functional; conditions: MKN-74, 48 h
[6] = tested on: NCI-H23; experiment: Growth inhibition of human NCI-H23 cells after 48 hrs by SRB assay; assay type: functional; conditions: NCI-H23, 48 h
[7] = tested on: OVCAR-8; experiment: Growth inhibition of human OVCAR8 cells after 48 hrs by SRB assay; assay type: functional; conditions: OVCAR-8, 48 h
[8] = Growth inhibition of human RXF631L cells after 48 hrs by SRB assay; assay type: functional; conditions: RXF 631, 48 h
[9] = tested on: SK-OV-3; experiment: Growth inhibition of human SKOV3 cells after 48 hrs by SRB assay; assay type: functional; conditions: SK-OV-3, 48 h
[10] = Growth inhibition of human BSY1 cells after 48 hrs by SRB assay; assay type: functional; conditions: BSY-1, 48 h
[11] = tested on: KM12; experiment: Growth inhibition of human KM12 cells after 48 hrs by SRB assay; assay type: functional; conditions: KM12, 48 h
[12] = Growth inhibition of human HBC4 cells after 48 hrs by SRB assay; assay type: functional; conditions: HBC4, 48 h
[13] = tested on: Raji; experiment: Tumor-promoting activity against human Raji cells expressing EBV-EA at 10^-8 M after 48 hrs by indirect immunofluorescence assay relative to control; assay type: ADME, cell-based; conditions: 0.01 µM
[14] = tested on: OVCAR-4; experiment: Growth inhibition of human OVCAR4 cells after 48 hrs by SRB assay; assay type: functional; conditions: OVCAR-4, 48 h
[15] = tested on: MCF7; experiment: Growth inhibition of human MCF7 cells after 48 hrs by SRB assay; assay type: functional; conditions: MCF7, 48 h
[16] = tested on: DMS-273; experiment: Growth inhibition of human DMS273 cells after 48 hrs by SRB assay; assay type: functional; conditions: DMS-273, 48 h
[17] = tested on: HCT-15; experiment: Growth inhibition of human HCT15 cells after 48 hrs by SRB assay; assay type: functional; conditions: HCT-15, 48 h
[18] = Growth inhibition of human MKN1 cells after 48 hrs by SRB assay; assay type: functional; conditions: MKN-1, 48 h
[19] = tested on: OVCAR-3; experiment: Growth inhibition of human OVCAR3 cells after 48 hrs by SRB assay; assay type: functional; conditions: OVCAR-3, 48 h
[20] = tested on: Mus musculus; experiment: In vivo tumor-promoting activity in DMBA-treated ICR mouse assessed as tumor bearing mouse at 3.4 nmol administered twice per week measured after 20 weeks by two-stage carcinogenesis assay relative to control; assay type: ADME, organism-based; conditions: 3360 h
[21] = tested on: HT-29; experiment: Growth inhibition of human HT-29 cells after 48 hrs by SRB assay; assay type: functional; conditions: HT-29, 48 h
[22] = tested on: MKN-45; experiment: Growth inhibition of human MKN45 cells after 48 hrs by SRB assay; assay type: functional; conditions: MKN-45, 48 h
[23] = tested on: Raji; experiment: Tumor-promoting activity against human Raji cells expressing EBV-EA at 10^-7 M after 48 hrs by indirect immunofluorescence assay relative to control; assay type: ADME, cell-based; conditions: 0.1 µM
[24] = tested on: U-251; experiment: Growth inhibition of human U251 cells after 48 hrs by SRB assay; assay type: functional; conditions: U-251, 48 h
[25] = tested on: SF-539; experiment: Growth inhibition of human SF539 cells after 48 hrs by SRB assay; assay type: functional; conditions: SF-539, 48 h
[26] = tested on: MKN-28; experiment: Growth inhibition of human MKN28 cells after 48 hrs by SRB assay; assay type: functional; conditions: MKN-28, 48 h
[27] = tested on: SNB-75; experiment: Growth inhibition of human SNB75 cells after 48 hrs by SRB assay; assay type: functional; conditions: SNB-75, 48 h
[28] = tested on: DU-145; experiment: Growth inhibition of human DU145 cells after 48 hrs by SRB assay; assay type: functional; conditions: DU-145, 48 h
[29] = tested on: St-4; experiment: Growth inhibition of human St-4 cells after 48 hrs by SRB assay; assay type: functional; conditions: St-4, 48 h
[30] = tested on: SF-295; experiment: Growth inhibition of human SF295 cells after 48 hrs by SRB assay; assay type: functional; conditions: SF-295, 48 h
[31] = tested on: DMS-114; experiment: Growth inhibition of human DMS114 cells after 48 hrs by SRB assay; assay type: functional; conditions: DMS-114, 48 h
[32] = tested on: Raji; experiment: Tumor-promoting activity against human Raji cells expressing EBV-EA at 10^-6 M after 48 hrs by indirect immunofluorescence assay relative to control; assay type: ADME, cell-based; conditions: 1 µM
[33] = Growth inhibition of human HBC5 cells after 48 hrs by SRB assay; assay type: functional; conditions: HBC5, 48 h
[34] = Growth inhibition of human HCC2998 cells after 48 hrs by SRB assay; assay type: functional; conditions: HCC 2998, 48 h
[35] = tested on: PC-3; experiment: Growth inhibition of human PC3 cells after 48 hrs by SRB assay; assay type: functional; conditions: PC-3, 48 h
[36] = tested on: MKN-7; experiment: Growth inhibition of human MKN7 cells after 48 hrs by SRB assay; assay type: functional; conditions: MKN-7, 48 h
[37] = tested on: SNB-78; experiment: Growth inhibition of human SNB-78 cells after 48 hrs by SRB assay; assay type: functional; conditions: SNB-78, 48 h
[38] = tested on: OVCAR-5; experiment: Growth inhibition of human OVCAR5 cells after 48 hrs by SRB assay; assay type: functional; conditions: OVCAR-5, 48 h
[39] = Cytotoxicity against human Raji cells assessed as cell viability at 10^-8 M relative to control; assay type: cell-based; conditions: read-out: Activity
[40] = tested on: SF-268; experiment: Growth inhibition of human SF268 cells after 48 hrs by SRB assay; assay type: functional; conditions: SF-268, 48 h
[41] = tested on: MDA-MB-231; experiment: Growth inhibition of human MDA-MB-231 cells after 48 hrs by SRB assay; assay type: functional; conditions: MDA-MB-231, 48 h
[42] = tested on: LOX IMVI; experiment: Growth inhibition of human LOXIMVI cells after 48 hrs by SRB assay; assay type: functional
[43] = Cytotoxicity against human Raji cells assessed as cell viability at 10^-7 M relative to control; assay type: cell-based; conditions: read-out: Activity
[44] = tested on: A549; experiment: Growth inhibition of human A549 cells after 48 hrs by SRB assay; assay type: functional; conditions: A549, 48 h
[45] = Cytotoxicity against human Raji cells assessed as cell viability at 10^-6 M relative to control; assay type: cell-based; conditions: read-out: Activity
[46] = tested on: NCI-H460; experiment: Growth inhibition of human NCI-H460 cells after 48 hrs by SRB assay; assay type: functional; conditions: NCI-H460, 48 h

Compound: CC1=C2CC(=O)O[C@@H]([C@@H](C)O)CC(=O)O[C@H]3C[C@@](O2)(O[C@H]([C@@H](C)CCCc2cccc(O)c2)[C@H]3C)C(C)(C)C1
- GI50 [1]: 5.62 µM
- GI50 [2]: 5.5 µM
- GI50 [3]: 5.5 µM
- GI50 [4]: 10.7 µM
- GI50 [5]: 6.17 µM
- GI50 [6]: 7.94 µM
- GI50 [7]: 12.6 µM
- GI50 [8]: 11 µM
- GI50 [9]: 15.5 µM
- GI50 [10]: 4.07 µM
- GI50 [11]: 4.17 µM
- GI50 [12]: 0.55 µM
- Activity [13]: 11%
- GI50 [14]: 6.61 µM
- GI50 [15]: 4.37 µM
- GI50 [16]: 4.37 µM
- GI50 [17]: 6.76 µM
- GI50 [18]: 8.13 µM
- GI50 [19]: 8.51 µM
- Activity [20]: Not Active
- GI50 [21]: 4.47 µM
- GI50 [22]: 1.82 µM
- Activity [23]: 14.1%
- GI50 [24]: 4.57 µM
- GI50 [25]: 11.2 µM
- GI50 [26]: 4.68 µM
- GI50 [27]: 9.77 µM
- GI50 [28]: 7.94 µM
- GI50 [29]: 0.741 µM
- GI50 [30]: 3.24 µM
- GI50 [31]: 4.47 µM
- Activity [32]: 16.2%
- GI50 [33]: 11.7 µM
- GI50 [34]: 1.86 µM
- GI50 [35]: 3.72 µM
- GI50 [36]: 4.07 µM
- GI50 [37]: 15.5 µM
- GI50 [38]: 4.17 µM
- viability at 0.01 µM [39]: 60%
- GI50 [40]: 10.2 µM
- GI50 [41]: 1.07 µM
- GI50 [42]: 0.832 µM
- viability at 0.1 µM [43]: 60%
- GI50 [44]: 2.09 µM
- viability at 1 µM [45]: 60%
- GI50 [46]: 0.871 µM

Reference: ChEMBL document CHEMBL2417479, “Effects of the methoxy group in the side chain of debromoaplysiatoxin on its tumor-promoting and anti-proliferative activities” (Bioorg Med Chem Lett, 2013)
